Structures are written as SMILES.

One series is described as follows: in vitro. To be noted: human, hela cells.
As for `CC1CN(C(=O)COc2ccccc2OC(=O)N(C)C)CC(C)O1` (centres unmarked) [CBK057627], the viability at 28.5 h, 10 µM is 121%.

Turning to `NC(=O)COC(=O)COc1ccc(Cl)cc1Cl` [CBK058628], the viability at 28.5 h, 10 µM was found to be 85.8%.

The series is the same for the next values; noted with them: human, hela cells, % viability.
Regarding `O=C(Nc1ccc2c(c1)CS(=O)(=O)C2)c1cccs1` [CBK057563], the viability at 28.5 h, 10 µM stood at 113%.

For `O=S(=O)(Nc1ccccc1)c1ccccc1I` [CBK057566], the viability at 28.5 h, 10 µM stood at 92.5%.

Take `O=S(=O)(NC1CCCCC1)c1ccc(Cl)cc1I` [CBK057574]: the viability at 28.5 h, 10 µM turned out to be 80.8%.

Take `COCC(C)NC(=O)c1cc2c(C)cc(C)cc2[nH]1` (centres unmarked) [CBK057591]: the viability at 28.5 h, 10 µM was 91.8%.

Regarding `O=C(O)CCNc1ccc(Cl)cc1` [CBK057631], the viability at 28.5 h, 10 µM was 75.5%.

As to `O=C(Nc1cccc(Cl)c1Cl)c1cccs1` [CBK057672], the viability at 28.5 h, 10 µM was found to be 104%.

Consider `O=C(CSc1ccccn1)Nc1cccc(Cl)c1Cl` [CBK057679], for which the viability at 28.5 h, 10 µM was 91.8%.

On to `CSc1ccc(CNC(=O)c2ccc(Cl)cc2)s1` [CBK057705], for which the viability at 28.5 h, 10 µM was 89.4%.

On to `COc1ccc(OCCC(=O)O)cc1` [CBK057706], for which the viability at 28.5 h, 10 µM came to 86.2%.

Consider `Cc1cc(Cl)ccc1NC(=O)COCC(=O)O` [CBK057723], for which the viability at 28.5 h, 10 µM came out at 104%.

`O=S(=O)(c1c(Cl)cc(C(F)(F)F)cc1Cl)N1CCOCC1` [CBK057736]: the viability at 28.5 h, 10 µM came to 88.8%.

In the case of `COC(=O)CNC(=O)c1ccncc1Br` [CBK057760], the viability at 28.5 h, 10 µM amounted to 101%.

For the compound `Cc1noc(C)c1C(=O)N1CCOCC1` [CBK057765], the viability at 28.5 h, 10 µM came to 80.5%.

Turning to `Cc1nc(COc2ccccc2Cl)sc1-c1ccnc(N)n1` [CBK057769], the viability at 28.5 h, 10 µM was found to be 91.3%.

On to `Cn1nc(NC(=O)c2ccco2)c2c(F)cccc21` [CBK057774], for which the viability at 28.5 h, 10 µM worked out at 93.7%.

With `CN1CCN(S(=O)(=O)c2ccc(-c3cc(C(F)(F)F)on3)s2)CC1` [CBK057780], the viability at 28.5 h, 10 µM was 96%.

`CC1=C(C(=O)Nc2ccc(Cl)cc2Cl)SCCO1` [CBK057784]: the viability at 28.5 h, 10 µM was found to be 96.5%.

For `COc1ccccc1N1CCN(C(=O)c2snnc2C)CC1` [CBK057792], the viability at 28.5 h, 10 µM came out at 92.8%.

In the case of `Cc1nc(COc2ccccc2)nc(O)c1Cl` [CBK057810], the viability at 28.5 h, 10 µM stood at 95.2%.

Consider `COC(=O)c1c(C)n[nH]c1COc1ccccc1` [CBK057823], for which the viability at 28.5 h, 10 µM is 92.1%.

With `CCCc1ccc(C(C)NC(=O)C2CC2C)cc1` (centres unmarked) [CBK057847], the viability at 28.5 h, 10 µM is 82.4%.

In the case of `Cc1nn(C)cc1C(=O)NC1CCCC1` [CBK057851], the viability at 28.5 h, 10 µM came to 112%.

Regarding `Cn1nnnc1SCC(=O)Nc1cc(F)ccc1F` [CBK057872], the viability at 28.5 h, 10 µM turned out to be 79.9%.

Regarding `CCCc1cc(C(=O)OC)c(NC(=O)C2C3CCC(C3)C2C(=O)O)s1` (centres unmarked) [CBK057885], the viability at 28.5 h, 10 µM was determined as 98.5%.

Consider `COc1ccc(NC(=O)c2sc(Cl)nc2C)cc1` [CBK057902], for which the viability at 28.5 h, 10 µM turned out to be 97.1%.

`O=C(CSC1=NCCS1)Nc1ccc(Cl)cn1` [CBK057917]: the viability at 28.5 h, 10 µM is 84%.

On to `O=C(Nc1nnc(C2CCCCC2)s1)c1ccccc1I` [CBK057918], for which the viability at 28.5 h, 10 µM came out at 114%.

Consider `O=C(NCCOc1ccc(F)cc1)c1cccs1` [CBK057930], for which the viability at 28.5 h, 10 µM amounted to 116%.

As for `CCc1nnc(NC(=O)CCc2ccccc2)s1` [CBK057943], the viability at 28.5 h, 10 µM amounted to 86.1%.

Turning to `CC(=O)c1sc(NC(=O)c2ccc(Br)o2)nc1C` [CBK057948], the viability at 28.5 h, 10 µM came to 91.6%.

`Nc1nc(SCC(=O)NCCCO)nc2sc3c(c12)CCCC3` [CBK057958]: the viability at 28.5 h, 10 µM was 87.8%.

As to `Cc1ccc2[nH]c(SCC(=O)NC3CCCC3)nc2c1` [CBK057983], the viability at 28.5 h, 10 µM amounted to 90%.

For `O=C(CSc1ncnc2c1oc1ccccc12)Nc1ccccc1` [CBK057994], the viability at 28.5 h, 10 µM stood at 93.4%.

For the compound `CN(C)CCCOc1ccc2c(c1)Sc1ccccc1CC2=O` [CBK058002], the viability at 28.5 h, 10 µM came to 95.4%.

`O=C(COc1ccccc1)Nc1nccs1` [CBK058018]: the viability at 28.5 h, 10 µM came out at 93.4%.

As to `O=C(CSc1ccccc1)NCc1ccncc1` [CBK058023], the viability at 28.5 h, 10 µM was 96.7%.

As for `CN(C)S(=O)(=O)c1cccnc1OCC(O)CNC(C)(C)C` (centres unmarked) [CBK058059], the viability at 28.5 h, 10 µM came to 84.5%.

In the case of `CC(CN1CCCCC1)OC(=O)COc1ccc(F)cc1` (centres unmarked) [CBK058066C], the viability at 28.5 h, 10 µM is 93.6%.

In the case of `Cc1cc(NC(=O)c2cc(C)oc2C)no1` [CBK058081], the viability at 28.5 h, 10 µM was found to be 88.7%.

As to `CCC(C)c1ccc(NC(=O)CSc2nnnn2C)cc1` (centres unmarked) [CBK058085], the viability at 28.5 h, 10 µM came to 122%.

Take `COC(=O)Nc1ccc(S(=O)(=O)N2CCCCC2C(=O)O)cc1` (centres unmarked) [CBK058086]: the viability at 28.5 h, 10 µM turned out to be 106%.

Regarding `CCCc1cc(C(=O)OC)c(NC(=O)c2c(C)noc2C)s1` [CBK058088], the viability at 28.5 h, 10 µM came to 92.5%.

Regarding `CN(C(=O)CSc1nnn(C)n1)c1ccccc1` [CBK058129], the viability at 28.5 h, 10 µM turned out to be 117%.

Turning to `O=C(Nc1ccccc1)c1cccc(S(=O)(=O)NCc2cccs2)c1` [CBK058153], the viability at 28.5 h, 10 µM was found to be 87.1%.

In the case of `Cc1cc(-c2ccccc2)nc(SCC(=O)Nc2nnc(C)s2)n1` [CBK058194], the viability at 28.5 h, 10 µM is 87.3%.

In the case of `CCCNC(=O)COc1ccc(CC)cc1` [CBK058199], the viability at 28.5 h, 10 µM came to 93.9%.

`Cn1nnnc1SCC(=O)Nc1ccc(Cl)c(Cl)c1` [CBK058218]: the viability at 28.5 h, 10 µM turned out to be 108%.

In the case of `O=C(Nc1ccc(Cl)cc1Cl)C1CC2CCC1C2` (centres unmarked) [CBK058237], the viability at 28.5 h, 10 µM came out at 102%.

On to `CCCC(CCC)C(=O)Nc1ccc(NC(=O)c2ccco2)c(C)c1` [CBK058263], for which the viability at 28.5 h, 10 µM was determined as 91.9%.

Turning to `CC1Cc2ccccc2N1C(=O)c1nn(C)cc1I` (centres unmarked) [CBK058268], the viability at 28.5 h, 10 µM stood at 97.3%.

Consider `CCc1nnc(NC(=O)c2cc(OC)c(OC)c(OC)c2)s1` [CBK058342], for which the viability at 28.5 h, 10 µM was 93.1%.

As for `CCC(Sc1nccn1C)C(=O)Nc1ccc(S(N)(=O)=O)cc1` (centres unmarked) [CBK058413], the viability at 28.5 h, 10 µM worked out at 107%.

As for `Cn1c(CNC2CCCCC2)nc2ccccc21` [CBK058416], the viability at 28.5 h, 10 µM was found to be 111%.

In the case of `CCC(C)(C)c1nnc(NC(=O)COc2ccc(Cl)cc2Cl)s1` [CBK058435], the viability at 28.5 h, 10 µM was 103%.

Take `O=C1CC(C(=O)Nc2c(Cl)cccc2Cl)C2(CCCCC2)O1` (centres unmarked) [CBK058445]: the viability at 28.5 h, 10 µM worked out at 95.9%.

On to `Nc1nonc1C(=O)NCCNC(=O)c1ccco1` [CBK058480], for which the viability at 28.5 h, 10 µM was determined as 99.1%.

On to `COc1cc(C(=O)NCc2ccccn2)cc(OC)c1OC` [CBK058552], for which the viability at 28.5 h, 10 µM was 88.3%.

Take `Ic1ccc(NCc2cn3ccccc3n2)cc1` [CBK058563]: the viability at 28.5 h, 10 µM is 91.4%.

In the case of `O=C(NCc1ccccn1)Nc1cccc(Cl)c1` [CBK058569], the viability at 28.5 h, 10 µM came to 95.9%.

Take `O=C(O)CCC(=O)Nc1ccccc1C(=O)Nc1ccccc1` [CBK058571]: the viability at 28.5 h, 10 µM was determined as 92.4%.

For the compound `O=C(NCC1CCCO1)c1sc2ccccc2c1Cl` (centres unmarked) [CBK058604], the viability at 28.5 h, 10 µM is 93.3%.

As to `c1ccc(CNc2nc(-c3ccncc3)cs2)cc1` [CBK058609], the viability at 28.5 h, 10 µM came to 91%.

Turning to `O=C(Nc1ncc(Cc2ccc(F)cc2)s1)C1CCCCC1` [CBK058611], the viability at 28.5 h, 10 µM came out at 105%.

The values above are taken from article PMC12040169 (PLOS Biology, 2025).
